EC50 data for 31 compounds are collected here from patent publication US9060971B2, “Combination pharmaceutical agents as inhibitors of HCV replication” (Enanta Pharmaceuticals, Inc., priority 2010, dated 2015).

For this assay, the system named is HCV 1b genotype replicon. The experiment in a line: HCV replicon drug screening assay (quantitative RT-PCR or luciferase), genotype 1b. It counts as cell-based. The note with it: Hepatitis C virus; HCV 1b genotype replicon; quantitative RT-PCR or luciferase assay; read-out: Genotype-1b replicon EC50 Range. From the text:
HCV replicon cell lines (kindly provided by R. Bartenschlager) isolated from colonies as described by Lohman et. al. (Lohman et al. (1999) Science 285: 110-113, expressly incorporated by reference in its entirety) and used for all experiments. The HCV replicon has the nucleic acid sequence set forth in EMBL Accession No.: AJ242651, the coding sequence of which is from nucleotides 1801 to 8406.
The coding sequence of the published HCV replicon was synthesized and subsequently assembled in a modified plasmid pBR322 (Promega, Madison, Wis.) using standard molecular biology techniques. One replicon cell line (“SGR 11-7”) stably expresses HCV replicon RNA which consists of (i) the HCV 5′UTR fused to the first 12 amino acids of the capsid protein, (ii) the neomycin phosphotransferase gene (neo), (iii) the IRES from encephalomyocarditis virus (EMCV), and (iv) HCV NS2 to NS5B genes and the HCV 3′UTR. Another replicon cell line (“Huh-luc/neo-ET”) described by Vrolijk et. al. (Vrolijk et. al. (2003) Journal of Virological Methods 110:201-209, expressly incorporated by reference in its entirety) stably expresses HCV replicon RNA which consists of (i) the HCV 5′UTR fused to the first 12 amino acids of the capsid protein, (ii) the firefly luciferase reporter gene, (iii) the ubiquitin gene, (iv) the neomycin phosphotransferase gene (neo), (v) the IRES from encephalomyocarditis virus (EMCV), and (vi) HCV NS3 to NS5B genes that harbor cell culture adaptive mutations (E1202G, T12801, K1846T) and the HCV 3′UTR.
These cell lines are maintained at 37° C., 5% CO2, 100% relative humidity in DMEM (Cat#11965-084, Invitrogen), with 10% fetal calf serum (“FCS”, Invitrogen), 1% non-essential amino acids (Invitrogen), 1% of Glutamax (Invitrogen), 1% of 100× penicillin/streptomycin (Cat#15140-122, Invitrogen) and Geneticin (Cat#10131-027, Invitrogen) at 0.75 mg/ml or 0.5 mg/ml for 11-7 and Huh-luc/neo-ET cells, respectively.
EC50 values of single agent compounds and combinations were determined by HCV RNA detection using quantitative RT-PCR, according to the manufacturer's instructions, with a TAQMAN® One-Step RT-PCR Master Mix Reagents Kit (Cat#AB 4309169, Applied Biosystems) on an ABI Model 7500 thermocycler. The TaqMan primers to use for detecting and quantifying HCV RNA are 5′-GCTGCGGCCTGTCGAGCT-3′ (SEQ ID NO: 1), 5′-CAAGGTCGTCTCCGCATAC-3′ (SEQ ID NO: 2) and the probe 5′-FAM-[…]-BHQ-3′ (SEQ ID NO: 3) obtained from Integrated DNA Technologies. HCV RNA is normalized to GAPDH RNA levels in drug-treated cells, which is detected and quantified using the Human GAPDH Endogenous Control Mix (Applied Biosystems, AB 4310884E). Total cellular RNA is purified from 96-well plates using the RNAqueous 96 kit (Ambion, Cat#AM1812). Chemical agent cytotoxicity was evaluated using an MTS assay according to the manufacturer's directions (Promega).
The compounds described herein can be effective against the HCV 1b genotype. It should also be understood that the compounds can inhibit multiple genotypes of HCV. In one embodiment, compounds of Formula (I) are active against the 1a, 1b, 2a, 2b, 3a, 4a, and 5a genotypes. […] The EC50 ranges were classified into the following groups: A>10 nM; B 1-10 nM; C<1 nM. The potential cytotoxicities of each agent were analyzed in parallel by MTS assay and are greater than 3 uM for all agents.
(In general: A replicon is a self-replicating genome or part of one, used to study replication in cells.)

Consider `COC(=O)N[C@H](C(=O)N1CCC[C@H]1c1nc2cc(-c3ccc4cc(-c5c[nH]c([C@@H]6CCCN6C(=O)[C@@H](NC(=O)OC)[C@@H](C)OC)n5)ccc4c3)ccc2[nH]1)C(C)C` [Compound 52], for which the EC50 (usually the midpoint of the concentration-response curve) is under 1 nM.
In the case of `COC(=O)N[C@H](C(=O)N1CCC[C@H]1c1nc2cc(-c3ccc4cc(-c5c[nH]c([C@@H]6CCCN6C(=O)[C@@H](NC(=O)OC)[C@@H](C)OC)n5)ccc4c3)ccc2[nH]1)[C@@H](C)O` [Compound 53], the EC50 is under 1 nM.
The figure for `CC[C@H](C)[C@H](NC(=O)OC)C(=O)N1CCC[C@H]1c1nc2cc(-c3ccc4cc(-c5c[nH]c([C@@H]6CCCN6C(=O)[C@@H](NC(=O)OC)[C@@H](C)OC)n5)ccc4c3)ccc2[nH]1` [Compound 54] is under 1 nM; for `COC(=O)N[C@H](C(=O)N1CCC[C@H]1c1nc(C#Cc2ccc(-c3ccc4[nH]c([C@@H]5CCCN5C(=O)[C@@H](NC(=O)OC)C(C)C)nc4c3)cc2)c[nH]1)C(C)C` [Compound 55] it is under 1 nM.
The figure for `COC(=O)N[C@H](C(=O)N1CCC[C@H]1c1nc(CCc2ccc(-c3ccc4[nH]c([C@@H]5CCCN5C(=O)[C@@H](NC(=O)OC)C(C)C)nc4c3)cc2)c[nH]1)C(C)C` [Compound 56] is under 1 nM; for `COC(=O)N[C@H](C(=O)N1CCC[C@H]1c1nc(C#Cc2ccc3cc(-c4ccc5[nH]c([C@@H]6CCCN6C(=O)[C@@H](NC(=O)OC)C(C)C)nc5c4)ccc3c2)c[nH]1)C(C)C` [Compound 57] it is under 1 nM; for `COC(=O)N[C@H](C(=O)N1CCC[C@H]1c1nc(CCc2ccc3cc(-c4ccc5[nH]c([C@@H]6CCCN6C(=O)[C@@H](NC(=O)OC)C(C)C)nc5c4)ccc3c2)c[nH]1)C(C)C` [Compound 58] it is under 1 nM.
As to `COC(=O)N[C@H](C(=O)N1CCC[C@H]1c1nc(-c2ccc(C#Cc3ccc4[nH]c([C@@H]5CCCN5C(=O)[C@@H](NC(=O)OC)[C@@H](C)OC)nc4c3)cc2)c[nH]1)[C@@H](C)OC` [Compound 59], the EC50 is under 1 nM.
The figure for `COC(=O)N[C@H](C(=O)N1CCC[C@H]1c1nc(-c2ccc3cc(C#Cc4ccc5[nH]c([C@@H]6CCCN6C(=O)[C@@H](NC(=O)OC)C(C)C)nc5c4)ccc3c2)c[nH]1)C(C)C` [Compound 60] is under 1 nM; for `COC(=O)N[C@H](C(=O)N1CCC[C@H]1c1nc(-c2ccc3cc(/C=C/c4ccc5[nH]c([C@@H]6CCCN6C(=O)[C@@H](NC(=O)OC)C(C)C)nc5c4)ccc3c2)c[nH]1)C(C)C` [Compound 61] it is under 1 nM; for `COC(=O)N[C@H](C(=O)N1CCC[C@H]1c1nc(-c2ccc(C#Cc3ccc4[nH]c([C@@H]5CCCN5C(=O)[C@@H](OC(=O)OC)C(C)C)nc4c3)cc2)c[nH]1)C(C)C` [Compound 62] it is under 1 nM.
On to `CCOC(=O)N[C@H](C(=O)N1CCC[C@H]1c1nc2cc(C#Cc3ccc(-c4c[nH]c([C@@H]5CCCN5C(=O)[C@@H](NC(=O)OC)C(C)C)n4)cc3)ccc2[nH]1)C(C)C` [Compound 63], for which the EC50 was under 1 nM.
The figure for `COC(=O)N[C@H](C(=O)N1CCC[C@H]1c1nc(-c2ccc(C#Cc3cc(F)c4[nH]c([C@@H]5CCCN5C(=O)[C@@H](NC(=O)OC)C(C)C)nc4c3)cc2)c[nH]1)C(C)C` [Compound 64] is under 1 nM.
The figure for `COC(=O)N[C@H](C(=O)N1CCC[C@H]1c1nc(-c2ccc(C#Cc3cc4nc([C@@H]5CCCN5C(=O)[C@@H](NC(=O)OC)C(C)C)[nH]c4cc3Cl)cc2)c[nH]1)C(C)C` [Compound 65] is under 1 nM; for `COC(=O)N[C@H](C(=O)N1CCC[C@H]1c1nc(-c2ccc(C#Cc3ccc4[nH]c([C@@H]5CC(=O)CN5C(=O)[C@@H](NC(=O)OC)C(C)C)nc4c3)cc2)c[nH]1)C(C)C` [Compound 66] it is under 1 nM; for `[2H]c1c([2H])c(-c2c[nH]c([C@@H]3CCCN3C(=O)[C@@H](NC(=O)OC)C(C)C)n2)c([2H])c([2H])c1C#Cc1ccc2[nH]c([C@@H]3CCCN3C(=O)[C@@H](NC(=O)OC)C(C)C)nc2c1` [Compound 67] it is under 1 nM.
The figure for `COC(=O)N[C@H](C(=O)N1CCC[C@H]1c1nc(-c2ccc3cc(-c4cc5nc([C@@H]6CCCN6C(=O)[C@@H](NC(=O)OC)C(C)C)[nH]c5cc4Cl)ccc3c2)c[nH]1)C(C)C` [Compound 68] is under 1 nM.
Regarding `COC(=O)N[C@H](C(=O)N1CCC[C@H]1c1nc(-c2ccc(/C=C/c3ccc4[nH]c([C@@H]5CCCN5C(=O)[C@@H](NC(=O)OC)C(C)C)nc4c3)cc2)c[nH]1)C(C)C` [Compound 69], the EC50 was under 1 nM.
The figure for `C=C(c1ccc(-c2c[nH]c([C@@H]3CCCN3C(=O)[C@@H](NC(=O)OC)C(C)C)n2)cc1)c1ccc2nc([C@@H]3CCCN3C(=O)[C@@H](NC(=O)OC)C(C)C)[nH]c2c1` [Compound 70] is under 1 nM.
The figure for `COC(=O)N[C@H](C(=O)N1CCC[C@H]1c1nc(-c2ccc(CCc3ccc4[nH]c([C@@H]5CCCN5C(=O)[C@@H](NC(=O)OC)C(C)C)nc4c3)cc2)c[nH]1)C(C)C` [Compound 71] is under 1 nM; for `COC(=O)N[C@H](C(=O)N1CCC[C@H]1c1ncc(-c2ccc([C@H]3C[C@@H]3c3ccc4nc([C@@H]5CCCN5C(=O)[C@@H](NC(=O)OC)C(C)C)[nH]c4c3)cc2)[nH]1)C(C)C` [Compound 72] it is under 1 nM.
As for `COC(=O)N[C@H](C(=O)N1CCC[C@H]1c1ncc(-c2ccc([C@@H]3C[C@H]3c3ccc4nc([C@@H]5CCCN5C(=O)[C@@H](NC(=O)OC)C(C)C)[nH]c4c3)cc2)[nH]1)C(C)C` [Compound 73], the EC50 was under 1 nM.
The figure for `COC(=O)N[C@H](C(=O)N1CCC[C@H]1c1ncc(-c2ccc(-c3ccc(-c4ccc5nc([C@@H]6CCCN6C(=O)[C@@H](NC(=O)OC)C(C)C)[nH]c5c4)cc3)cc2)[nH]1)C(C)C` [Compound 74] is under 1 nM.
The figure for `COC(=O)N[C@H](C(=O)N1CCC[C@H]1c1nc(-c2ccc(C#Cc3ccc4[nH]c([C@@H]5CCCN5C(=O)OC(C)(C)C)nc4c3)cc2)c[nH]1)C(C)C` [Compound 75] is 1 to 10 nM; for `COC(=O)N[C@@H](C)C(=O)N1CCC[C@H]1c1nc2cc(C#Cc3ccc(-c4c[nH]c([C@@H]5CCCN5C(=O)[C@@H](NC(=O)OC)C(C)C)n4)cc3)ccc2[nH]1` [Compound 76] it is under 1 nM; for `CC[C@H](NC(=O)OC)C(=O)N1CCC[C@H]1c1nc2cc(C#Cc3ccc(-c4c[nH]c([C@@H]5CCCN5C(=O)[C@@H](NC(=O)OC)C(C)C)n4)cc3)ccc2[nH]1` [Compound 77] it is under 1 nM.
The figure for `CCC[C@H](NC(=O)OC)C(=O)N1CCC[C@H]1c1nc2cc(C#Cc3ccc(-c4c[nH]c([C@@H]5CCCN5C(=O)[C@@H](NC(=O)OC)C(C)C)n4)cc3)ccc2[nH]1` [Compound 78] is under 1 nM; for `COC(=O)N[C@H](C(=O)N1CCC[C@H]1c1nc(-c2ccc(C#Cc3ccc4[nH]c([C@@H]5CCCN5C(=O)[C@H](NC(=O)OC)c5ccccc5)nc4c3)cc2)c[nH]1)C(C)C` [Compound 79] it is under 1 nM.
With `COC(=O)N[C@H](C(=O)N1CCC[C@H]1c1nc(-c2ccc(C#Cc3ccc4[nH]c([C@@H]5CCCN5C(=O)[C@@H](NC(=O)OC)[C@@H](C)OC)nc4c3)cc2)c[nH]1)C(C)C` [Compound 80], the EC50 is under 1 nM.
The figure for `COC(=O)N[C@H](C(=O)N1CCC[C@H]1c1nc(-c2ccc(C#Cc3ccc4[nH]c([C@@H]5CCCN5C(=O)[C@@H](NC(C)=O)C(C)C)nc4c3)cc2)c[nH]1)C(C)C` [Compound 81] is under 1 nM; for `COC(=O)N[C@H](C(=O)N1CCC[C@H]1c1nc(-c2ccc(C#Cc3ccc4[nH]c([C@@H]5CCCN5C(=O)[C@@H](c5ccccc5)C(C)C)nc4c3)cc2)c[nH]1)C(C)C` [Compound 82] it is under 1 nM.
